# Biological target: human orexin-2 receptor (Homo sapiens (Human), UniProt O43614)
# Test: Human orexin 2 receptor radioligand binding ([3H]-EMPA competition)
# Conditions: HEK293 cells stably expressing human orexin-2 receptor; [3H]-EMPA 5 nM final; apparent Ki=IC50/(1+C/Kd), Kd=2 nM; read-out: OR 2 Ki
# human orexin-2 receptor, sequence (O43614 whole entry): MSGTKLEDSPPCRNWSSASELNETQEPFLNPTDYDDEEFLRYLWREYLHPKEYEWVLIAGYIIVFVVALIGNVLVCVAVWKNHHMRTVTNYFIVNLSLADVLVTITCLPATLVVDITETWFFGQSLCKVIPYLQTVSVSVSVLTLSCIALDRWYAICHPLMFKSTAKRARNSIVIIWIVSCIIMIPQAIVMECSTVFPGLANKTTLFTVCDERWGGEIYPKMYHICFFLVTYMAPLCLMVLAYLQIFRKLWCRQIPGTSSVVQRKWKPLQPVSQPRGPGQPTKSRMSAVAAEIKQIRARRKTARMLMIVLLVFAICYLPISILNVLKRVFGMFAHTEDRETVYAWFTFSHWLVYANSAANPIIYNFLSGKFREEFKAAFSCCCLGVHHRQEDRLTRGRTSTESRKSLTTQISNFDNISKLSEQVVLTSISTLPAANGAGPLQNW
row,SMILES,Ki
1,"Cc1cc(N2CC3CN(C(=O)c4c(F)cccc4-n4nccn4)CC3C2)nc(C(F)(F)F)n1 (centres unmarked) [Example 98, 2-{[2-Fluoro-6-(2H-1,2,3-triazol-2-yl)phenyl]carbonyl}-5-[6-methyl-2-(trifluoromethyl)pyrimidin-4-yl]octahydropyrrolo[3,4-c]pyrrole]",28 nM
2,"O=C(c1ccccc1-c1ccccc1)N1CC2CN(c3nccc(-c4cccs4)n3)CC2C1 (centres unmarked) [Example 38, 2-(Biphenyl-2-ylcarbonyl)-5-(4-thiophen-2-ylpyrimidin-2-yl)octahydropyrrolo[3,4-c]pyrrole]",515 nM
3,"Cc1cc(C)nc(N2CC3CN(C(=O)c4ccccc4-n4cccn4)CC3C2)n1 (centres unmarked) [Example 67, 2-(4,6-Dimethylpyrimidin-2-yl)-5-{[2-(1H-pyrazol-1-yl)phenyl]carbonyl}octahydro-pyrrolo[3,4-c]pyrrole]",119 nM
4,"Cc1cc(C)nc(N2CC3CN(C(=O)c4ncccc4-c4ccccc4)CC3C2)n1 (centres unmarked) [Example 208, [5-(4,6-Dimethyl-pyrimidin-2-yl)-hexahydro-pyrrolo[3,4-c]pyrrol-2-yl]-(3-phenyl-pyridin-2-yl)-methanone]",2100 nM
5,"Cc1ccoc1C(=O)N1CC2CN(c3ccc(C(F)(F)F)cn3)CC2C1 (centres unmarked) [Example 353, 2-[(3-Methylfuran-2-yl)carbonyl]-5-[5-(trifluoromethyl)pyridin-2-yl]octahydropyrrolo[3,4-c]pyrrole]",10000 nM
6,"CCCOc1cccnc1C(=O)N1CC2CN(c3cnc4ccccc4n3)CC2C1 (centres unmarked) [Example 347, (3-Propoxypyridin-2-yl)(5-(quinoxalin-2-yl)hexahydropyrrolo[3,4-c]pyrrol-2(1H)-yl)methanone]",3100 nM
7,"Cc1cc(N2CC3CN(C(=O)c4cc(F)ccc4-n4nccn4)CC3C2)nc(C(F)(F)F)n1 (centres unmarked) [Example 114, 2-{[5-Fluoro-2-(2H-1,2,3-triazol-2-yl)phenyl]carbonyl}-5-[6-methyl-2-(trifluoromethyl)pyrimidin-4-yl]octahydropyrrolo[3,4-c]pyrrole]",224 nM
8,"COc1cccc(OC)c1C(=O)N1CC2CN(c3cnc4ccccc4n3)CC2C1 (centres unmarked) [Example 165, 2-{5-[(2,6-Dimethoxyphenyl)carbonyl]hexahydropyrrolo[3,4-c]pyrrol-2(1H)-yl}quinoxaline]",852 nM
9,"CN(C)c1nc(N2CC3CN(C(=O)c4c(F)cccc4-n4nccn4)CC3C2)cc(C(F)(F)F)n1 (centres unmarked) [Example 106, 4-[5-{[2-Fluoro-6-(2H-1,2,3-triazol-2-yl)phenyl]carbonyl}hexahydropyrrolo[3,4-c]pyrrol-2(1H)-yl]-N,N-dimethyl-6-(trifluoromethyl)pyrimidin-2-amine]",26 nM
10,"COc1cc(OC)nc(N2CC3CN(C(=O)c4c(F)cccc4-c4ncccn4)CC3C2)n1 (centres unmarked) [Example 68, 2-(4,6-Dimethoxypyrimidin-2-yl)-5-[(2-fluoro-6-pyrimidin-2-ylphenyl)carbonyl]octahydropyrrolo[3,4-c]pyrrole]",13 nM
11,"O=C(c1ccccc1-c1cccc(Cl)c1)N1CC2CN(c3cnc4ccccc4n3)CC2C1 (centres unmarked) [Example 41, 2-{5-[(3′-Chlorobiphenyl-2-yl)carbonyl]hexahydropyrrolo[3,4-c]pyrrol-2(1H)-yl}quinoxaline]",356 nM
12,"O=C(c1ccccc1-c1ccccc1)N1CC2CN(c3nc4ccccc4s3)CC2C1 (centres unmarked) [Example 169, 2-[5-(Biphenyl-2-ylcarbonyl)hexahydropyrrolo[3,4-c]pyrrol-2(1H)-yl]-1,3-benzothiazole]",595 nM
13,"O=C(c1ccccc1-c1ccccc1)N1CC2CN(c3nc4ccc(Cl)cc4s3)CC2C1 (centres unmarked) [Example 190, Biphenyl-2-yl-[5-(6-chloro-benzothiazol-2-yl)-hexahydro-pyrrolo[3,4-c]pyrrol-2-yl]-methanone]",1300 nM

# Same assay, conditions: read-out: OR 2 Ki
row,SMILES,Ki
1,"Cc1ccc(-c2c(F)cccc2C(=O)N2CC3CN(c4nc(C)cc(C)n4)CC3C2)nc1 (centres unmarked) [Example 374, (5-(4,6-Dimethylpyrimidin-2-yl)hexahydropyrrolo[3,4-c]pyrrol-2(1H)-yl)(3-fluoro-2-(5-methylpyridin-2-yl)phenyl)methanone]",73 nM

# — patent US8653263B2 (Janssen Pharmaceutica, priority 2009, dated 2014)
